Counter-ions that a name gives are not always drawn.
Assay: Solubility test at pH=4 from phosphate buffer pH 6 0.1M, by HPLC
Assay type: physicochemical
Details: for solubility at 5 min: aqueous buffer, thermodynamic from solid, phosphate buffer pH 6 0.1M, HPLC, first figure of the S/pH cell, the pH of the sample is the second; for pH (of the solubility sample): second figure of the S/pH cell, pH noted for the solubility sample
Description: The results for solubility, S, and pH are shown in the table below and are expressed in mg/ml.
A phosphate buffer, pH6, 0.1M, was prepared by adding 6.15 ml of 0.1M Na2HPO4 to 43.85 ml of 0.1M NaH2PO4. The solution was made up to 100 ml with filtered water using a Millipore system (trade mark).
Reference (Test Product in a Concentration in which the Latter is Soluble and which Acts as an Internal Reference)
About 0.2 mg (in a boat) was weighed out exactly and diluted in 1 ml of H2O/CH3CN: (50:50), i.e. 0.2 mg/ml, then the sample was subjected to ultrasound for 5 minutes.
About 4 mg (in a boat) was weighed out exactly and diluted in 400 μl (i.e. 10 mg/ml) of pH6 phosphate buffer (0.1M), then the sample was subjected to ultrasound for 5 minutes.
The pH was noted and if the pH was below 4, 1 μl of NaOH 1N was added (from 1 μl in 1 μl) until the pH was more than 4, then the pH was noted again. The solution (0.45 μm) was filtered then if necessary diluted with the phosphate buffer pH6. (If the product re-precipitated after diluting, the diluted sample was ignored, the mother solution was used and the solubility was determined at a wavelength other than λmax, to avoid saturating the signal.
The solubility of the compound was then determined by HPLC under the following conditions:
Instrument: Agilent 1100 chromatograph
Column temperature: 30° C. Flow rate: 0.8 ml/min Detection: λ=230 nm Injection volume: 5 μl

solubility at 5 min [µg/mL]	pH (of the solubility sample)	SMILES
8810	5.4	CCCCc1cc2ccccn2c1C(=O)c1ccc(CCCN(CC)CC)cc1.Cl [compound 1, (2-butylindolizin-3-yl){4-[3-(diethylamino)propyl]phenyl}methanone hydrochloride]
7470	4.07	CCc1cc2ccccn2c1C(=O)c1ccc(CCCN(CC)CC)cc1.O=C(O)C(=O)O [compound 2, (2-ethylindolizin-3-yl){4-[3-(diethylamino)propyl]phenyl}methanone oxalate]
> 10000	5.82	CCCc1cc2ccccn2c1C(=O)c1ccc(CCCN(CC)CC)cc1.Cl [compound 3, {4-[3-(diethylamino)propyl]phenyl}(2-propylindolizin-3-yl)methanone hydrochloride]
> 10000	4.10	CCCCc1cc2ccccn2c1C(=O)c1ccc(CCCCN(CC)CC)cc1.O=C(O)C(=O)O [compound 4, (2-butylindolizin-3-yl){4-[4-(diethylamino)butyl]phenyl}methanone oxalate]
> 10000	3.96	CCc1cc2ccccn2c1C(=O)c1ccc(CCCCN(CC)CC)cc1.O=C(O)C(=O)O [compound 5, {4-[4-(diethylamino)butyl]phenyl}(2-ethylindolizin-3-yl)methanone oxalate]
> 10000	5.79	CCCc1cc2ccccn2c1C(=O)c1ccc(CCCCN(CC)CC)cc1.Cl [compound 6, {4-[4-(diethylamino)butyl]phenyl}(2-propylindolizin-3-yl)methanone hydrochloride]
8570	5.65	CCCCc1cc2ccccn2c1C(=O)c1ccc(CCCN(CCC)CCC)cc1 [compound 7, (2-butylindolizin-3-yl){4-[3-(dipropylamino)propyl]phenyl}methanone hydrochloride]
8600	5.82	CCCN(CCC)CCCc1ccc(C(=O)c2c(CC)cc3ccccn23)cc1 [compound 8, {4-[3-(dipropylamino)propyl]phenyl}(2-ethylindolizin-3-yl)methanone hydrochloride]
5290	5.82	CCCc1cc2ccccn2c1C(=O)c1ccc(CCCN(CCC)CCC)cc1 [compound 9, {4-[3-(dipropylamino)propyl]phenyl}(2-propylindolizin-3-yl)methanone hydrochloride]
> 10000	5.81	CCCCc1cc2ccccn2c1C(=O)c1ccc(CCCCN(CCC)CCC)cc1 [compound 10, (2-butylindolizin-3-yl){4-[4-(dipropylamino)butyl]phenyl}methanone hydrochloride]
> 10000	5.82	CCCN(CCC)CCCCc1ccc(C(=O)c2c(CC)cc3ccccn23)cc1 [compound 11, {4-[4-(dipropylamino)butyl]phenyl}(2-ethylindolizin-3-yl)methanone hydrochloride]
1610	7.2	CCCN(CCC)CCCc1ccc(C(=O)c2c(C)cc3ccccn23)cc1 [compound 13, {4-[3-(dipropylamino)propyl]phenyl}(2-methylindolizin-3-yl)methanone hydrochloride]
2330	4.10	CCCN(CCC)CCCCc1ccc(C(=O)c2c(C(C)C)cc3ccccn23)cc1 [compound 14, {4-[4-(dipropylamino)butyl]phenyl}(2-isopropylindolizin-3-yl)methanone oxalate]
1560	6.33	CCCN(CCC)CCCCc1ccc(C(=O)c2c(C)cc3ccccn23)cc1 [compound 15, {4-[4-(dipropylamino)butyl]phenyl}(2-methylindolizin-3-yl)methanone hydrochloride]
> 10000	5.81	CCCc1cc2ccccn2c1C(=O)c1ccc(CCCCN(CCC)CCC)cc1 [compound 16, {4-[4-(dipropylamino)butyl]phenyl}(2-propylindolizin-3-yl)methanone hydrochloride]
> 10000	4.88	CCCCc1cc2ccccn2c1C(=O)c1ccc(CCCN(CCCC)CCCC)cc1 [compound 17, (2-butylindolizin-3-yl){4-[3-(dibutylamino)propyl]phenyl}methanone hydrochloride]
6510	5.42	CCCCN(CCCC)CCCc1ccc(C(=O)c2c(CC)cc3ccccn23)cc1 [compound 18, {4-[3-(dibutylamino)propyl]phenyl}(2-ethylindolizin-3-yl)methanone hydrochloride]
4070	5.27	CCCCN(CCCC)CCCc1ccc(C(=O)c2c(CCC)cc3ccccn23)cc1 [compound 19, {4-[3-(dibutylamino)propyl]phenyl}(2-propylindolizin-3-yl)methanone hydrochloride]
2950	4.02	CCCCc1cc2ccccn2c1C(=O)c1ccc(CCCCN(CCCC)CCCC)cc1 [compound 20, (2-butylindolizin-3-yl){4-[4-(dibutylamino)butyl]phenyl}methanone oxalate]
6900	4.08	CCCCN(CCCC)CCCCc1ccc(C(=O)c2c(CC)cc3ccccn23)cc1 [compound 21, {4-[4-(dibutylamino)butyl]phenyl}(2-ethylindolizin-3-yl)methanone oxalate]
4080	4.58	CCCCN(CCCC)CCCCc1ccc(C(=O)c2c(CCC)cc3ccccn23)cc1 [compound 22, {4-[4-(dibutylamino)butyl]phenyl}(2-propylindolizin-3-yl)methanone oxalate]
> 10000	6.06	CCCCc1cc2ccccn2c1C(=O)c1ccc(CCCN(CC)CCC)cc1 [compound 23, (2-butylindolizin-3-yl)(4-{3-[ethyl(propyl)amino]propyl}phenyl)methanone hydrochloride]
5920	4.51	CCCN(CC)CCCc1ccc(C(=O)c2c(CC)cc3ccccn23)cc1 [compound 24, (2-ethylindolizin-3-yl)(4-{3-[ethyl(propyl)amino]propyl}phenyl)methanone oxalate]
1710	6.4	CCCN(CC)CCCc1ccc(C(=O)c2c(C(C)C)cc3ccccn23)cc1 [compound 25, (4-{3-[ethyl(propyl)amino]propyl}phenyl)(2-isopropylindolizin-3-yl)methanone hydrochloride]
1490	7.14	CCCN(CC)CCCc1ccc(C(=O)c2c(C)cc3ccccn23)cc1 [compound 26, (4-{3-[ethyl(propyl)amino]propyl}phenyl)(2-methylindolizin-3-yl)methanone hydrochloride]
2170	6.5	CCCN(CC)CCCCc1ccc(C(=O)c2c(C(C)C)cc3ccccn23)cc1 [compound 27, (4-{4-[ethyl(propyl)amino]butyl}phenyl)(2-isopropylindolizin-3-yl)methanone oxalate]
